Assay results from patent US20260041773A1, “TOPICAL COMPOSITION COMPRISING A PROSTAGLANDIN ANALOGUE” (DERMALIQ THERAPEUTICS, INC., priority 2019, published 2026).

Assays:
[1] = Penetration of cortexolone 17α-propionate, Franz Diffusion Cells; format: in vitro ADME; conditions: 1% (w/w) CB-03-01 in F4H5
Protocol: Cortexolone 17α-propionate (developmental code name CB-03-01; 21-Hydroxy-3,20-dioxopregn-4-en-17-yl propionate; CAS Registry Number: 19608-29-8) was dissolved in 1-perfluorbutylpentane (F4H5) to result in a solution of 1% (w/w) CB-03-01 in F4H5.

[2] = Penetration of latanoprost solution in hair roots of pig's eyelashes (eyelid incubation, HPLC); format: in vitro ADME
Protocol: Test formulation: 0.5 mg/ml latanoprost (Yonsung, Purity 100,2%) in 1-perfluorobutylpentane (Novaliq) and 1% v/v ethanol (Merck, Secco solve dried).
Biological material: fresh pig's eyes with eyelids, not in buffer solution during transport from the slaughterhouse to the laboratory.
The upper eyelids were separated from the eye with scissors, forceps and scalpel. Each eyelid was placed in a glass vessel and incubation with the test formulation was started by addition of 1 ml of formulation. Since the eyelashes had different lengths, before incubation the eyelashes were shortened to standardise the incubation procedure. After incubation according to the plan in Table 3, the eyelids were washed with 1-perfluorobutylpentane eight times and eyelashes were plucked and weighted, as shown in Table 3.
After plucking of the eyelashes, the eyelids were punched with a 4 mm (0,126 cm^2) biopsy tool 5 times (total area 0,628 cm^2). The skin and the conjunctiva were then separated.
Extraction via addition of […] ACN (acetonitrile) to each sample at room temperature on orbital shaker (150 rpm) and minirotator (Biosan maximum level) for 2 hours. Then the samples were centrifuged for 5 minutes at 13000 rpm. The supernatant collected from the samples was stored at −20° C. till analysis.
The amount of latanoprost and of the bio transformed latanoprost acid in the tissues and eyelashes were determined via HPLC. For the calculation, the mean assay values for latanoprost acid were corrected with a factor of 1,1 as the molecular weight of latanoprost acid is lower than the weight of latanoprost.

[3] = Penetration of latanoprost into minipig skin punches with and without hair (Franz Diffusion Cells, HPLC); format: in vitro ADME, Gottingen minipig; conditions: 2 hours incubation
Protocol: Biological material: abdominal and dorsal full skin, R1 and part of L1 region, of 5 months old Gottingen minipig skin.
For the incubation experiments, Franz Diffusion Cells (FDC) having an inner diameter of 15 mm and an acceptor volume of 12 ml were used. Donor and acceptor chambers were made of glass.
Twelve frozen full thickness skin disks were punched with a diameter of 30 mm. After complete defrosting and equilibration to room temperature, the punches were clamped into Franz diffusion cells (FDC). Each skin disc was dried with wipes, clamped in between the corresponding FDCs having an inner diameter of 15 mm (1.767 cm^2 skin diffusion area) and an acceptor volume of approximately 12 ml. The receiver compartment of the cells was filled with PBS (phosphate buffered saline). Incubation was started by addition of 800 […]1 of test formulation 1-3. […]
Out of each skin disc, 20 skin discs having a diameter of 2 mm were obtained by punching with a disposable biopsy punch, which was put on top of the skin and pressed through the full thickness of the skin. […] The ten punches with hair and without hair obtained by each disc were placed respectively in pre-weighed tubes and the weight was determined. […]
Via HPLC analysis, the amount of latanoprost penetrated in the skin disks after incubation with the test formulations and the amount of latanoprost acid were evaluated and are illustrated in the FIGS. 1-3.

SMILES | amount found in the dermis [1] | delivery to layers of the skin ([1]; stratum corneum, epidermis and dermis) | latanoprost acid in eyelashes ([2]; 25 hours incubation, FIG. 5) | amount of latanoprost in eyelashes ([2]; FIG. 4, 2, 15, 25 hrs) | amount of latanoprost in skin parts ([2]; FIG. 4, compared with eyelashes) | uptake of latanoprost, skin punches with hair vs without hair ([3]; FIG. 1, microgram per cm^2) | content of latanoprost acid, punches with hair vs without hair ([3]; FIG. 2)
CCC(=O)O[C@]1(C(=O)CO)CC[C@H]2[C@@H]3CCC4=CC(=O)CC[C@]4(C)[C@H]3CC[C@@]21C [cortexolone 17α-propionate, 21-Hydroxy-3,20-dioxopregn-4-en-17-yl propionate] | especially high amounts of cortexolone 17α-propionate were found in the dermis | effectively and rapidly delivered to layers of the skin |  |  |  |  | 
CC(C)OC(=O)CCC/C=C\C[C@@H]1[C@@H](CC[C@@H](O)CCc2ccccc2)[C@H](O)C[C@@H]1O [latanoprost] |  |  | a small amount of latanoprost acid was detected | preferred affinity to the eyelashes | Comparable lower amount of latanoprost were detected in the skin parts | higher for skin punches with hair than for skin punches without hair | higher content of latanoprost acid than punches without hair
